In patent publication US20020137929A1, “1 - (3-heterocyclylphenyl) isothiourea, -isourea, -guanidine and -amidine herbicidal agents” (Intellectual Property Department, BASF Aktiengesellschaft, priority 1998, published 2002):

Tests used:
[1] = system: ABUTH (Velvetleaf); test: Preemergence herbicidal evaluation; type: in vivo, Abutilon theophrasti; settings: rated 4-5 weeks after treatment; for ABUTH rating: preemergence, 0-9 scale
How it was run: (§1)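 Greenhouse preemergence test: seed-soil mix sown on ~1 inch soil; aqueous acetone spray at equivalent of ~0.0156–0.500 kg/ha; greenhouse-held and watered; scored 0–9 visually at 4–5 weeks.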

[2] = system: TRZAWR (Wheat, Winter, cv Riband); test: Preemergence herbicidal evaluation; type: in vivo, Triticum aestivum; settings: rated 4-5 weeks after treatment; for TRZAWR rating: preemergence, 0-9 scale
How it was run: as §1

[3] = system: ECHORC (Watergrass (Calif.)); test: Preemergence weed control under flooded paddy conditions; type: in vivo, Echinochloa oryzoides; settings: rated 3-4 weeks after treatment
How it was run: (§2)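 Silt loam, seeds in top 0.5 cm; flood held 1.5-3 cm; test cpd as acetone/water 50/50 into flood water, ~0.0313-0.500 kg/ha a.i.; greenhouse 3-4 wk; visual 0-9 score vs control.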

[4] = system: CYPIR (Rice Flatsedge); test: as above; type: in vivo, Cyperus iria; settings: rated 3-4 weeks after treatment
How it was run: as §2

[5] = system: SAGPY (Arrowhead (Pygmaea)); test: as above; type: in vivo, Sagittaria pygmaea; settings: rated 3-4 weeks after treatment
How it was run: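 Herbicidal effect is scored visually on a 0-9 scale against an untreated control, three to four weeks after compounds are pipetted into the flood water (1.5 to 3 cm deep) over seeds planted in silt loam at 0.5 cm depth. Rates: about 0.0313 to 0.500 kg/ha.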

[6] = system: MOOVA (Monochoria); test: Postemergence weed control under flooded paddy conditions; type: in vivo, Monochoria vaginalis; settings: postemergence weeds, rated 3 to 4 weeks after treatment
How it was run: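 With weeds 3 to 5 cm tall and rice at the 1.5 to 2.5 leaf stage, containers were flooded and water held 1.5 to 3 cm above soil. Compounds in 50/50 v/v aqueous/acetone went into the flood water at about 0.0313 to 0.500 kg/ha a.i. Effects were visually rated 0–9 against controls after three to four weeks in the greenhouse.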

Row | SMILES | ECHORC herbicidal effect rating ([3]; 0.0313 kg/ha) | ECHORC herbicidal effect rating ([3]; 0.0625 kg/ha) | ECHORC herbicidal effect rating ([3]; 0.1250 kg/ha) | ECHORC herbicidal effect rating ([3]; 0.2500 kg/ha) | CYPIR herbicidal effect rating ([4]; 0.0313 kg/ha) | CYPIR herbicidal effect rating ([4]; 0.0625 kg/ha) | CYPIR herbicidal effect rating ([4]; 0.1250 kg/ha) | CYPIR herbicidal effect rating ([4]; 0.2500 kg/ha) | SAGPY herbicidal effect rating ([5]; 0.0313 kg/ha) | SAGPY herbicidal effect rating ([5]; 0.0625 kg/ha) | SAGPY herbicidal effect rating ([5]; 0.1250 kg/ha) | SAGPY herbicidal effect rating ([5]; 0.2500 kg/ha) | Herbicidal rating MOOVA ([6]; Rate 0.0313 kg/ha) | Herbicidal rating MOOVA ([6]; Rate 0.0625 kg/ha) | Herbicidal rating MOOVA ([6]; Rate 0.1250 kg/ha) | Herbicidal rating MOOVA ([6]; Rate 0.2500 kg/ha) | ABUTH rating ([1]; 0.1250 kg/ha) | ABUTH rating ([1]; 0.2500 kg/ha) | TRZAWR rating ([2]; 0.1250 kg/ha) | TRZAWR rating ([2]; 0.2500 kg/ha) | further results
1 | C=CCN1C(=O)C(CC(=O)O)SC1=Nc1cc(-n2c(=O)cc(C(F)(F)F)n(C)c2=O)c(F)cc1Cl (stereo not shown) [Compound 62, 3-Allyl-2-{{2-chloro-5-[3,6-dihydro-3-methyl-2,6-dioxo-4-(trifluoromethyl)-1(2H)-pyrimidinyl]-4-fluorophenyl}imino}-4-oxo-5-thiazolidineacetic acid] | 0.0 | 0.0 | 2.0 | 5.0 | 0.0 | 2.0 | 9.0 | 9.0 | 0.0 | 0.0 | 3.0 | 6.0 | 4.0 | 9.0 | 9.0 | 9.0 |  |  |  |  | Preemergence herbicidal rating ABUTH ([1]; rate 0.0156 kg/ha): 4.0; Preemergence herbicidal rating ABUTH ([1]; rate 0.0313 kg/ha): 7.0; Preemergence herbicidal rating ABUTH ([1]; rate 0.0625 kg/ha): 9.0; Preemergence herbicidal rating ABUTH ([1]; rate 0.1250 kg/ha): 9.0; Preemergence herbicidal rating ABUTH ([1]; rate 0.2500 kg/ha): 9.0; Preemergence herbicidal rating TRZAWR ([2]; rate 0.0156 kg/ha): 0.0; Preemergence herbicidal rating TRZAWR ([2]; rate 0.0625 kg/ha): 1.0; Preemergence herbicidal rating TRZAWR ([2]; rate 0.1250 kg/ha): 1.0; Preemergence herbicidal rating TRZAWR ([2]; rate 0.2500 kg/ha): 2.0
2 | C=CCN1C(=O)C(CC(=O)OC(C)C)SC1=Nc1cc(-n2c(=O)cc(C(F)(F)F)n(C)c2=O)c(F)cc1Cl (stereo not shown) [Compound 66, Isopropyl 3-allyl-2-{{2-chloro-5-[3,6-dihydro-3-methyl-2,6-dioxo-4-(trifluoromethyl)-1(2H)-pyrimidinyl]-4-fluorophenyl}imino}-4-oxo-5-thiazolidineacetate] | 7.0 | 7.0 | 9.0 | 9.0 | 6.0 | 6.0 | 7.0 | 7.0 | 3.0 | 4.0 | 4.0 | 4.0 | 9.0 | 9.0 | 9.0 | 9.0 |  |  |  |  | Preemergence herbicidal rating ABUTH ([1]; rate 0.0156 kg/ha): 5.0; Preemergence herbicidal rating ABUTH ([1]; rate 0.0313 kg/ha): 8.0; Preemergence herbicidal rating ABUTH ([1]; rate 0.0625 kg/ha): 9.0; Preemergence herbicidal rating ABUTH ([1]; rate 0.1250 kg/ha): 9.0; Preemergence herbicidal rating ABUTH ([1]; rate 0.2500 kg/ha): 9.0; Preemergence herbicidal rating ABUTH ([1]; rate 0.5000 kg/ha): 9.0; Preemergence herbicidal rating TRZAWR ([2]; rate 0.0156 kg/ha): 0.0; Preemergence herbicidal rating TRZAWR ([2]; rate 0.0313 kg/ha): 0.0; Preemergence herbicidal rating TRZAWR ([2]; rate 0.0625 kg/ha): 0.5; Preemergence herbicidal rating TRZAWR ([2]; rate 0.1250 kg/ha): 0.5; Preemergence herbicidal rating TRZAWR ([2]; rate 0.2500 kg/ha): 1.0; Preemergence herbicidal rating TRZAWR ([2]; rate 0.5000 kg/ha): 4.0
3 | C=CCN1C(=O)C(CC(=O)NOC)SC1=Nc1cc(-n2c(=O)cc(C(F)(F)F)n(C)c2=O)c(F)cc1Cl (stereo not shown) [Compound 85] | 4.0 | 5.0 | 7.0 | 9.0 | 3.0 | 7.0 | 9.0 | 9.0 | 3.0 | 3.0 | 9.0 | 9.0 | 9.0 | 9.0 | 9.0 | 9.0 | 9.0 | 9.0 | 3.0 | 5.0 | ABUTH rating ([1]; 0.0156 kg/ha): 0.0; ABUTH rating ([1]; 0.0313 kg/ha): 9.0; ABUTH rating ([1]; 0.0625 kg/ha): 9.0; ABUTH rating ([1]; 0.5000 kg/ha): 9.0; TRZAWR rating ([2]; 0.0156 kg/ha): 0.0; TRZAWR rating ([2]; 0.0313 kg/ha): 0.0; TRZAWR rating ([2]; 0.0625 kg/ha): 0.0; TRZAWR rating ([2]; 0.5000 kg/ha): 8.0
4 | CCOC(=O)CN1C(=O)C(CC(=O)OC(C)C(=O)OCC)S/C1=N/c1cc(-n2c(=O)cc(C(F)(F)F)n(C)c2=O)c(F)cc1Cl (stereo not shown) [Compound 87] | 0.0 | 0.0 | 2.0 | 3.0 | 5.0 | 5.0 | 5.0 | 5.0 | 0.0 | 4.0 | 4.0 | 5.0 | 9.0 | 9.0 | 9.0 | 9.0 | 3.0 | 9.0 | 0.0 | 0.0 | ABUTH rating ([1]; 0.5000 kg/ha): 9.0; TRZAWR rating ([2]; 0.5000 kg/ha): 1.0; ECHORC herbicidal effect rating ([3]; 0.5000 kg/ha): 3.0; CYPIR herbicidal effect rating ([4]; 0.5000 kg/ha): 7.0; SAGPY herbicidal effect rating ([5]; 0.5000 kg/ha): 7.0; Herbicidal rating MOOVA ([6]; Rate 0.5000 kg/ha): 9.0
5 | COC(=O)CC1SC(=Nc2cc(-n3c(=O)cc(C(F)(F)F)n(C)c3=O)c(F)cc2Cl)N(C)C1=O (stereo not shown) [Compound 88, Methyl 2-{{2-chloro-5-[3,6-dihydro-3-methyl-2,6-dioxo-4-(trifluoromethyl)-1(2H)-pyrimidinyl]-4-fluorophenyl}imino}-3-methyl-4-oxo-5-thiazolidineacetate] | 6.0 | 6.0 | 6.0 | 7.0 | 0.0 | 0.0 | 0.0 | 0.0 | 6.0 | 9.0 | 9.0 | 9.0 | 9.0 | 9.0 | 9.0 | 9.0 | 9.0 | 9.0 | 3.0 | 9.0 | ABUTH rating ([1]; 0.0156 kg/ha): 9.0; ABUTH rating ([1]; 0.0313 kg/ha): 9.0; ABUTH rating ([1]; 0.0625 kg/ha): 9.0; TRZAWR rating ([2]; 0.0156 kg/ha): 0.0; TRZAWR rating ([2]; 0.0313 kg/ha): 0.0; TRZAWR rating ([2]; 0.0625 kg/ha): 0.0
